The values below come from ChEMBL document CHEMBL3286201, “Antileishmanial activity of a series of N²,N⁴-disubstituted quinazoline-2,4-diamines” (J Med Chem, 2014).

The nature of data set [1]: physchem. Conditions: pampa, pH 4.
Description: (§1) Passive transcellular permeability of the compound at pH 4 by PAMPA
Data set [2] is described as follows: physchem. To be noted: pampa, pH 7.4.
Description: (§2) Passive transcellular permeability of the compound at pH 7.4 by PAMPA
Data set [3] is described as follows: Aqueous solubility of the compound at pH 2. It counts as physicochemical. Conditions: buffer.
Data set [4] has as its system Mus musculus. Put plainly: Toxicity in BALB/c mouse assessed as hypoactivity at 30 mg/kg, ip for 5 consecutive doses. In kind it is organism-based. More on the design: dose 30 mg/kg, route intraperitoneal. Conditions: in vivo.
The test system of data set [5] is Liver. Put plainly: AUC (last) in Swiss Webster mouse liver at 100 umol/kg, ip. In kind it is ADME, tissue-based. More on the design: dose 100 umol/kg, time 0 - last, route intraperitoneal. To be noted: in vivo.
The nature of data set [6]: AUC (last) in Swiss Webster mouse plasma at 100 umol/kg, po. Also noted: dose 100 umol/kg, route oral, time 0 - last. In kind it is ADME, cell-free.
For data set [7], the system named is Spleen. Put plainly: Cmax in Swiss Webster mouse spleen at 100 umol/kg, po. To be noted: in vivo. Also noted: dose 100 umol/kg, route oral. In kind it is ADME, tissue-based.
The test system of data set [8] is Spleen. Put plainly: AUC (last) in Swiss Webster mouse spleen at 100 umol/kg, ip. In kind it is ADME, tissue-based. More on the design: dose 100 umol/kg, route intraperitoneal, time 0 - last. To be noted: in vivo.
For data set [9] the following is noted: pampa, pH 7.4.
Description: as §2
In data set [10] the test system is Spleen. Put plainly: Cmax in Swiss Webster mouse spleen at 100 umol/kg, ip. Also noted: dose 100 umol/kg, route intraperitoneal. Conditions: in vivo. In kind it is ADME, tissue-based.
For data set [11], the system named is Leishmania donovani. Put plainly: Antileishmanial activity against intracellular amastigote stage of Leishmania donovani MHOM/ET/67/L82 infected in mouse J774A1 cells by colorimetric assay. Conditions: MHOM/ET/67/L82, J774.A1. It counts as functional, organism-based.
The conditions of data set [12]: pampa, pH 4.
Description: as §1
A short description of data set [13]: Aqueous solubility of the compound at pH 7.4. It counts as physicochemical. To be noted: buffer.
A short description of data set [14]: Elimination half life in Swiss Webster mouse plasma at 100 umol/kg, po. It counts as ADME, cell-free.
The nature of data set [15]: Elimination half life in Swiss Webster mouse plasma at 100 umol/kg, ip. In kind it is ADME, cell-free. To be noted: read-out: beta t1/2 (converted).
The nature of data set [16]: Distribution coefficient, log D of the compound at pH 7.4. It counts as physicochemical. Conditions: octanol/water.
Data set [17] concerns Liver. Put plainly: Cmax in Swiss Webster mouse liver at 100 umol/kg, ip. It counts as ADME, tissue-based. More on the design: dose 100 umol/kg, route intraperitoneal. Conditions: in vivo.
Data set [18] deals with Liver. Put plainly: Cmax in Swiss Webster mouse liver at 100 umol/kg, po. It counts as ADME, tissue-based. More on the design: dose 100 umol/kg, route oral. To be noted: in vivo.
In data set [19] the test system is Liver. Put plainly: AUC (last) in Swiss Webster mouse liver at 100 umol/kg, po. In kind it is ADME, tissue-based. More on the design: dose 100 umol/kg, time 0 - last, route oral. To be noted: in vivo.
Data set [20] deals with Spleen. Put plainly: AUC (last) in Swiss Webster mouse spleen at 100 umol/kg, po. Conditions: in vivo. It counts as ADME, tissue-based. More on the design: dose 100 umol/kg, time 0 - last, route oral.
A short description of data set [21]: Cmax in Swiss Webster mouse plasma at 100 umol/kg, ip. In kind it is ADME, cell-free. More on the design: dose 100 umol/kg, route intraperitoneal.
Data set [22] has as its system Leishmania donovani. Put plainly: Antileishmanial activity against antimony-resistant clinical isolate Leishmania donovani BPK164/1 infected in mouse J774A1 cells by colorimetric assay. It counts as functional, organism-based. To be noted: BPK164/1, J774.A1.
The next data set relates to Leishmania amazonensis. Put plainly: Antileishmanial activity against intracellular amastigote stage of Leishmania amazonensis LV78 infected in mouse J774A1 cells by colorimetric assay. In kind it is functional, organism-based. To be noted: LV78, J774.A1.
Data set [23] can be described thus: Cmax in Swiss Webster mouse plasma at 100 umol/kg, po. It counts as ADME, cell-free. Also noted: dose 100 umol/kg, route oral.
Data set [24] deals with Liver. Put plainly: Half life in mouse liver microsomes at 1 uM after 60 mins by HPLC-MS/MS analysis. In kind it is ADME. Conditions: 1 h.
A short description of data set [25]: Cytotoxicity against mouse J774A1 cells after 72 hrs by MTT assay. It counts as cell-based. Conditions: J774.A1, 72 h. A general note: Tetrazolium assays rely on reduction of a dye to a coloured formazan, in cell work by metabolically active cells.
A short description of data set [26]: Distribution coefficient, log D of the compound at pH 3. In kind it is physicochemical. To be noted: octanol/water.
Data set [27] in a line: AUC (last) in Swiss Webster mouse plasma at 100 umol/kg, ip. It counts as ADME, cell-free. Also noted: dose 100 umol/kg, route intraperitoneal, time 0 - last.
Data set [28] relates to Leishmania donovani. Put plainly: Antileishmanial activity against clinical isolate Leishmania donovani BPK206/0 infected in mouse J774A1 cells by colorimetric assay. Conditions: BPK206/0, J774.A1.
Data set [29] in a line: Toxicity in BALB/c mouse assessed as tolerated dose treated ip for 5 consecutive doses. It counts as organism-based. Conditions: in vivo.
A short description of data set [30]: Selectivity index, ratio of EC50 for mouse J774A1 cells to EC50 for intracellular amastigote stage of Leishmania donovani MHOM/ET/67/L82. In kind it is toxicity, cell-based, J774.A1. Conditions: read-out: Ratio EC50.
Data set [31] deals with Mus musculus. Put plainly: Toxicity in BALB/c mouse assessed as slowed breathing at 30 mg/kg, ip for 5 consecutive doses. To be noted: in vivo. It counts as organism-based. More on the design: dose 30 mg/kg, route intraperitoneal.

Regarding `CNC(=C[N+](=O)[O-])NCCSCc1ccc(CN(C)C)o1.Cl` [RANITIDINE HYDROCHLORIDE], the apparent permeability coefficient (Papp) in the data set “physchem [1]” was 2.2 ×10⁻⁶ cm/s; in the data set “physchem [2]”, 5.2 ×10⁻⁶ cm/s.
In the case of `Cc1ccc2c(NCc3ccco3)nc(NC(C)C)nc2c1`, the solubility in data set [3] is no less than 30 µM; in data set [13] it was no more than 20 µM. Besides, in the data set on Mus musculus [4], the Activity result is recorded as “Toxic”. The AUClast came to 42 µM·h with Liver [5], 71 µM·h with Spleen [8], 29 µM·h in the data set on Liver [19] and 7.4 µM·h in the data set on Spleen [20]. The AUC(0-t) was 2.5 µM·h in data set [6] and 4.6 µM·h in data set [27]. Further, the Cmax in the data set on Spleen [7] came to 0.9 µM; with Spleen [10], 45.8 µM; in the data set with Liver [17], 48 µM; with Liver [18] it was 5.2 µM; in data set [21], 2.67 µM; in [23], 0.25 µM. The results for the permeability in data set [9] and in data set [12] were 798 ×10⁻⁶ cm/s and 67.2 ×10⁻⁶ cm/s, respectively. Also, the half-maximal effective concentration (EC50) with Leishmania donovani [11] is 0.83 µM; in the data set with Leishmania donovani [22] it was 3.8 µM; in the data set with Leishmania amazonensis, 4.1 µM; in [25] it was greater than 33 µM; with Leishmania donovani [28], 4.2 µM. Also, the results for the half-life in data set [14] and in [15] were 20 h and 5.4 h, respectively. In addition, the logD worked out at 3.61 in data set [16] and 1.58 in data set [26]. Moreover, in the data set with Liver [24], the t1/2 stood at 0.157 h.
In the case of `CNc1nc(NCc2ccccc2)nc2ccccc12`, the solubility is no less than 30 µM in data set [3] and no more than 10 µM in [13]. The values for the permeability in data set [9] and in [12] were 1720 ×10⁻⁶ cm/s and 57.1 ×10⁻⁶ cm/s, respectively. For the same molecule, the MTD at 5 consecutive doses in data set [29] is 30 mg/kg. In addition, the EC50 with Leishmania donovani [11] stood at 0.15 µM; in the data set with Leishmania donovani [22] it was 2 µM; in the data set on Leishmania amazonensis, 0.9 µM; in [25] it was 15 µM; in the data set on Leishmania donovani [28] it was 2.8 µM. Besides, the selectivity ratio in data set [30] was determined as 100. The pH-dependent lipophilicity (logD) in [16] came to 2.96; in data set [26] it was 2.
In the case of `CCCCNc1nc(NCc2ccccc2)nc2ccccc12`, the solubility was no less than 30 µM in data set [3] and no more than 10 µM in [13]. Besides, the AUClast with Liver [5] came to 500 µM·h; in the data set on Spleen [8], 620 µM·h; in the data set on Liver [19], 110 µM·h; with Spleen [20] it was 68 µM·h. In addition, the AUC(0-t) was found to be 7.8 µM·h in data set [6] and 11 µM·h in data set [27]. In addition, the Cmax amounted to 7 µM in the data set on Spleen [7]; 163 µM in the data set with Spleen [10]; 148 µM in the data set on Liver [17]; 15.8 µM in the data set with Liver [18]; 5.21 µM in data set [21]; 0.44 µM in data set [23]. Further, the results for the permeability in data set [9] and in data set [12] were 1020 ×10⁻⁶ cm/s and 341 ×10⁻⁶ cm/s, respectively. Besides, the EC50 with Leishmania donovani [11] worked out at 0.34 µM; with Leishmania donovani [22], 1.4 µM; with Leishmania amazonensis, 1.4 µM; in data set [25], 4.9 µM; in the data set with Leishmania donovani [28], 2 µM. In addition, in data set [15], the half-life is 20 h. The Activity result in the data set with Mus musculus [31] is listed as “Toxic”. In addition, the log distribution coefficient (logD) in [16] came to 3.84; in data set [26] it was 2.86. In the data set on Liver [24], this molecule came in with a t1/2 of 0.45 h.
Consider `NC(=O)N1c2ccccc2C=Cc2ccccc21` [CARBAMAZEPINE], for which the apparent permeability coefficient (Papp) in “physchem [1]” stood at 108 ×10⁻⁶ cm/s; in “physchem [2]”, 130 ×10⁻⁶ cm/s.
As to `FC(F)(F)CNc1nc(NCc2ccco2)c2ccccc2n1`, the solubility is no less than 30 µM in data set [3] and no more than 10 µM in data set [13]. The permeability is 979 ×10⁻⁶ cm/s in [9] and 67.7 ×10⁻⁶ cm/s in [12]. Moreover, the figures for the EC50 (in the data set on Leishmania donovani [11]; with Leishmania amazonensis; in data set [25]) were 3.6 µM, 5.8 µM and 23 µM, respectively. Also, the selectivity ratio in [30] was found to be 6.4. Besides, the logD in [16] was 4.2; in [26], 2.02.
In the case of `COc1ccc2nc(NC(C)C)nc(NCc3ccco3)c2c1`, the solubility in [3] and in [13] was no less than 30 µM each time. Also, the figures for the permeability in [9] and in data set [12] were 1010 ×10⁻⁶ cm/s and 80.2 ×10⁻⁶ cm/s, respectively. The EC50 with Leishmania donovani [11] came out at 0.74 µM; in the data set with Leishmania amazonensis it was 9.6 µM; in [25], 14 µM. In addition, the selectivity ratio in data set [30] was 19. The logD in data set [16] amounted to 3.58; in data set [26] it was 2.95.

A word on the Papp: it is a coefficient for how fast a substance crosses the barrier. As a reminder, the solubility is the concentration that dissolves in the medium under given conditions. By AUC(0-t) is commonly meant the area under the concentration-time curve up to a stated or last time point. A lower AUC(0-t) goes with less exposure. In general, Cmax refers to the highest concentration seen after dosing. In general, EC50 refers to the concentration giving half of the maximal effect. For orientation: logD means lipophilicity at a set pH, counting ionised and neutral species. Usually MTD stands for the largest dose that counted as tolerated.
